Among the data in patent EP1881000A1, “Conjugates of 2-fluoro-2-deoxy-glucose and their uses as anti cancer agents” (INSTITUT NATIONAL DE LA SANTE ET DE LA RECHERCHE MEDICALE …, priority 2006, dated 2008) are IC50 values, retold here.

Assay in all cases: In vitro cytotoxicity assay (resazurin reduction test)
Assay type in all cases: cell-based

Test [1] concerns ovary adenocarcinoma PA1. To be noted: Homo sapiens, 48-h continuous drug exposure. From the text:
(§1) Normal human fibroblasts were purchased from Promocell (Heidelberg, Germany). This frozen culture was obtained from foreskin waste and the cells used in this work were from the seventh to twelfth passage of the culture. M4Beu, a human melanoma cell line, was established in the laboratory of Dr. J. F. Doré (INSERM, Unit 218, Lyon, France) from metastatic biopsy specimens and maintained in cell culture for almost 20 years in our lab. Breast cancer adenocarcinoma MCF 7, prostatic adenocarcinoma PC 3, colon adenocarcinoma DLD-1, lung non-small cell carcinoma A 549, ovary adenocarcinoma PA1 human cell lines and L 929 murine cell line were purchased from the European Collection of Cell Cultures (ECACC; Salisbury, United Kingdom). Murine Melanoma B16 was purchased from American Type of Culture Collection (ATCC, Manassas, USA) and murine colon carcinoma cell line CT-26 was obtained from Dr I. J. Fidler (University of Texas M.D. Anderson Cancer Center, Houston).
(§2) Stock cell cultures were maintained as monolayers in 75cm^2 culture flasks in Glutamax Eagle's minimum essential medium with Earle's salts (MEM; Gibco BRL, Paisley, UK) supplemented with 10% fetal calf serum (Sigma, St Quentin Fallavier, France), 1 mM sodium pyruvate (Gibco), 1X vitamins solution (Gibco), 1X non essential amino acids solution (Gibco) and 4 µg/ml of gentamicine (Gibco). Cells were grown at 37°C in a humidified atmosphere containing 5% CO2.
(§3) Cells were plated at a density of 5 x 10^3 cells per well in 96-well microplates (Nunclon™, Nunc, Roskilde, Denmark) in 150 µl of culture medium and were allowed to adhere for 16 h before treatment with the compound tested.
(§4) Stock solution of each compound was prepared in dimethylsulfoxide (DMSO) and kept at -20°C. until use. The percentage of DMSO was kept at 0.5% (v/v) whichever the concentration tested. […] Fifty microliters of a 4X solution in MEM was then added and a 48-h continuous drug exposure protocol was used. Then, the cytotoxic effect of compounds on tumour cells was tested by using Resazurin reduction test.
(§5) Resazurin was identified as the Alamar blue dye (O'Brien, J. et al.; European Journal of Biochemistry, 267, 5421-6, (2000)). The resazurin reduction test (RRT) was carried out according to the protocol described here. Briefly, plates were rinsed by 200 µl PBS (37° C, Gibco) using a multichannel dispenser (Labsystems, Helsinki, Finland) and emptied by overturning on absorbent toweling. Then, 150 µl of a 25 µg/ml solution of resazurin in MEM without SVF nor Phenol red was added in each well. The plates were incubated 1 h at 37° C. in an humidified atmosphere with 5% of CO2 for fluorescence development by living cells. Fluorescence was then measured on the automated 96-well plate reader Fluoroskan Ascent FL™ (Labsystems) using an excitation wavelength of 530 nm and an emission one of 590 nm.
(§6) Cytotoxic activity has been tested against the six human tumour cell lines breast adenocarcinoma MCF-7, colon adenocarcinoma DLD-1, ovary adenocarcinoma PA1, prostatic adenocarcinoma PC3, lung carcinoma A549, melanoma M4Beu and a primary culture of human fibroblasts.

The test system of test [2] is M4Beu, a human melanoma cell line. To be noted: 48-h continuous drug exposure.
From the text: as §1, §2, §3, §4, §5, §6

For test [3], the system named is Normal human fibroblasts. To be noted: Fibroblast, 48-h continuous drug exposure.
From the text: as §1, §2, §3, §4, §5, §6

In test [4] the test system is prostatic adenocarcinoma PC 3. To be noted: Homo sapiens; PC3; 48-h continuous drug exposure.
From the text: as §1, §2, §3, §4, §5, §6

The subject of test [5] is lung non-small cell carcinoma A 549. To be noted: Homo sapiens; A549; 48-h continuous drug exposure.
From the text: as §1, §2, §3, §4, §5, §6

For test [6], the system named is Breast cancer adenocarcinoma MCF 7. Conditions: Homo sapiens; MCF7; 48-h continuous drug exposure.
From the text: as §1, §2, §3, §4, §5, §6

Test [7] has as its system colon adenocarcinoma DLD-1. Conditions: Homo sapiens, DLD1, 48-h continuous drug exposure.
From the text: as §1, §2, §3, §4, §5, §6

The subject of test [8] is murine colon carcinoma cell line CT-26. To be noted: Mus musculus; CT26; 48-h continuous drug exposure.
From the text: as §1, §2, §3, §4, §5

The subject of test [9] is Murine Melanoma B16. To be noted: Mus musculus, 48-h continuous drug exposure.
From the text: as §1, §2, §3, §4, §5

For `CC(=O)OC[C@H]1O[C@@H](Oc2ccc(NC(=O)CCCc3ccc(N(CCCl)CCCl)cc3)cc2)[C@H](F)[C@@H](OC(C)=O)[C@@H]1OC(C)=O` [Compound 37a, N-[4-(3,4,6-tri-O-acetyl-2-deoxy-2-fluoro-β-D-glucopyranosyloxy)phenyl]-4-{4-[bis(2-chloroethyl)amino]phenyl}butanamide], the IC50 (in general, the point on the concentration scale where inhibition reaches its midpoint) in test [1] is 0.76 ± 0.06 µM; in test [2], above 50 µM; in test [3] it was above 50 µM; in test [4], 11 ± 4 µM; in test [5], 1.9 ± 0.01 µM; in test [6], 26 ± 11 µM. This compound yielded an IC50 in test [7] of 10 ± 5 µM.

In the case of `CC(=O)OC[C@H]1O[C@@H](NC(=O)c2ccc(NC(=O)CCCc3ccc(N(CCCl)CCCl)cc3)cc2)[C@H](F)[C@@H](OC(C)=O)[C@@H]1OC(C)=O` [Compound 20a, N-(3,4,6-tri-O-acetyl-2-deoxy-2-fluoro-β-D-glucopyranosyl)-4-(4-{4-[bis(2-chloroethyl)amino]phenyl}butanamido)benzamide], the IC50 in test [1] was determined as 0.3 ± 0.1 µM; in [2] it was 7 ± 3 µM; in test [3], 4 ± 2 µM; in test [4], 1.4 ± 0.3 µM; in test [5] it was 2.7 ± 0.6 µM; in test [6] it was 5 ± 2 µM. Moreover, the IC50 came to 3 ± 2 µM in test [7], 1.7 ± 0.3 µM in test [8] and 4.6 ± 0.3 µM in test [9].

As for `CC(=O)OC[C@H]1O[C@@H](NC(=O)NCCCc2ccc(N(CCCl)CCCl)cc2)[C@H](F)[C@@H](OC(C)=O)[C@@H]1OC(C)=O` [Compound 17a, N-(3,4,6-tri-O-acetyl-2-deoxy-2-fluoro-β-D-glucopyranosyl)-N'-{3-(4-[bis(2-chloroethyl)amino]phenyl)propyl}urea], the IC50 in test [1] is 0.6 ± 0.2 µM; in test [2], 27 ± 11 µM; in test [3], 13 ± 2 µM; in test [4], 4 ± 1 µM; in test [5] it was 8 ± 2 µM; in test [6] it was 26.4 ± 0.6 µM. It took 7 ± 3 µM to reach half-maximal inhibition in [7] (IC50).

`CC(=O)OC[C@H]1O[C@@H](NC(=O)CCCNC(=O)CCCc2ccc(N(CCCl)CCCl)cc2)[C@H](F)[C@@H](OC(C)=O)[C@@H]1OC(C)=O` [Compound 22a, N-[4-(3,4,6-tri-O-acetyl-2-deoxy-2-fluoro-β-D-glucopyranosylamino)-4-oxobutyl]-4-{4-[bis(2-chloroethyl)amino]phenyl}butanamide]: the IC50 in test [1] worked out at 0.27 ± 0.04 µM; in [2] it was 9 ± 3 µM; in [3], 4.1 ± 0.1 µM; in [4], 3 ± 1 µM; in [5], 13 ± 5 µM; in test [6], 12 ± 1 µM. In test [7], this compound yielded an IC50 of 9 ± 2 µM.

As to `CC(=O)OC[C@H]1O[C@@H](NC(=O)CCNC(=O)CCCc2ccc(N(CCCl)CCCl)cc2)[C@H](F)[C@@H](OC(C)=O)[C@@H]1OC(C)=O` [Compound 31a, N-[3-(3,4,6-tri-O-acetyl-2-deoxy-2-fluoro-β-D-glucopyranosylamino)-3-oxopropyl]-4-{4-[bis(2-chloroethyl)amino]phenyl}butanamide], the IC50 stood at 0.24 ± 0.08 µM in test [1]; 15 ± 3 µM in [2]; 7 ± 5 µM in test [3]; 3.7 ± 0.3 µM in test [4]; 9.2 ± 0.5 µM in test [5]; 13 ± 5 µM in [6]. Further, the IC50 in test [7] amounted to 11 ± 4 µM.
